Experimental data as given in PubChem BioAssay AID540252 (Sanford-Burnham Center for Chemical Genomics, 2011).
Active and inactive are the calls of the source. No rule for the calls is given here.

Target: glucose-6-phosphate dehydrogenase-6-phosphogluconolactonase (Plasmodium falciparum 3D7)
Assay: PfG6PD enzyme inhibitors, direct NADPH readout, dose response, orthogonal assay, biochemical, end-point NADPH detection (AID 540252)
Conditions: purified PfG6PD enzyme

Compound | IC50
Cn1c(=O)[nH]c(=O)c2c1nc([N+](=O)[O-])n2Cc1ccccc1 | > 80 µM (inactive)
C(=N\Nc1nc2ccccc2[nH]1)/c1ccccn1 | > 80 µM (inactive)
O=C1/C(=C\c2ccc([N+](=O)[O-])cc2)CS(=O)(=O)C/C1=C/c1ccc([N+](=O)[O-])cc1 | > 80 µM (inactive)
Cc1ccc(-c2nc(N)s[n+]2-c2ccccc2)cc1 | 60.3 µM
CN(C)c1ccc(/C=C/c2ccc3c4ccccc4ccc3[n+]2-c2ccccc2)cc1 | > 80 µM (inactive)
[O-]/[N+](=C/c1cccnc1)c1ccc(Br)cc1 | > 80 µM (inactive)
Cc1cccc(NC2=C(NC(=O)c3ccccc3)C(=O)c3ccccc3C2=O)c1 | > 80 µM (inactive)
O=C1CCN(c2ccccc2)N1 | > 80 µM (inactive)
CCCn1cc(S(=O)(=O)CC(=O)Nc2ccc(OC)cc2OC)c2ccccc21 | > 80 µM (inactive)
Cc1ccccc1N/C(SCc1cccc(Br)c1)=C(/C#N)C(N)=O | > 80 µM (inactive)
COc1ccccc1N1CSC2=C(C#N)C(c3ccc(SC)cc3)CC(=O)N2C1 (configuration not stated) | > 80 µM (inactive)
COc1c2ccoc2c(OCC=C(C)C)c2oc(=O)ccc12 | > 80 µM (inactive)
O=[N+]([O-])c1ccc(N/N=C/c2ccc(O)c(O)c2O)c(S(=O)(=O)N2CCOCC2)c1 | 47.5 µM
Cc1cccc(C2(c3cccc(C)c3)CC2C(=O)Nc2ccc([N+](=O)[O-])cc2O)c1 (configuration not stated) | > 80 µM (inactive)
CCn1c(=O)n(CC)c2cc(N3CCCC3)c(NC(=O)c3cccc(C)c3)cc21 | > 80 µM (inactive)
CC(C)Sc1nnc(NC(=O)c2ccc3c(c2)OCO3)s1 | > 80 µM (inactive)
CC(=O)Nc1ccc2c(=O)n(-c3ccccc3)sc2c1 | 13.8 µM
Nc1c(O)cccc1C(=O)O | > 80 µM (inactive)
CCN1CCN(C(=S)c2ccc(O)cc2)CC1 | > 80 µM (inactive)
COC1=C(OC)C(=O)C(Sc2ccc3ccccc3c2)=CC1=O | 30.2 µM
O=C(O)CSc1cc(NS(=O)(=O)c2cccc([N+](=O)[O-])c2)c2ccccc2c1O | > 80 µM (inactive)
CC1N(C)c2cccc3cccc(c23)N1C | > 80 µM (inactive)
COc1ccc(CCn2c(NN=C(C)C)nc3c2c(=O)[nH]c(=O)n3C)cc1 | > 80 µM (inactive)
CCNc1ccccc1CP(=O)(c1ccccc1)c1ccccc1O (configuration not stated) | > 80 µM (inactive)

Compound | IC50
Cc1ccc(S(=O)(=O)SCCCSS(=O)(=O)c2ccc(C)cc2)cc1 | 38.8 µM
Cc1cccc(C(=O)Nc2sc3c(c2C(=O)O)CCCC3)c1 | > 80 µM (inactive)
CN(C)c1cccc2c1c(NC(=O)c1ccc(F)cc1)nn2C | > 80 µM (inactive)
O=C1OC(c2ccc3ccccc3c2O)(c2ccc3ccccc3c2O)c2ccccc21 | > 80 µM (inactive)
Cc1ccc(-c2c(C(=O)N/N=C/c3ccc(C)o3)nnn2-c2nonc2N)cc1 | > 80 µM (inactive)
O=C(CBr)c1ccc([N+](=O)[O-])c(CS(=O)(=O)c2ccc(Cl)cc2)c1 | 42.5 µM
Cc1[nH]c2ccccc2c1/C=N/NC(=O)c1cccc(S(=O)(=O)Nc2ccccc2Cl)c1 | > 80 µM (inactive)
CN(C)c1ccc(C=c2c3cc(O)ccc3n3c2cc(-c2ccccc2)[n+]3C)cc1 | > 80 µM (inactive)
O=S(=O)(NCc1csc(-c2ccccc2)n1)c1ccc(Cl)s1 | > 80 µM (inactive)
Cc1ccc(NC(=O)c2cc(N3C(=O)C=CC3=O)ccc2N2CCOCC2)cc1 | > 80 µM (inactive)
COc1cc(/C=N/Nc2nncn2N)ccc1OCc1c(C)no[n+]1[O-] | > 80 µM (inactive)
C/C(Cn1nnc([N+](=O)[O-])n1)=N\NC(=O)c1ccc(O)cc1 | > 80 µM (inactive)
Cc1cc(C)nc(SSc2nc(C)cc(C)n2)n1 | 57.6 µM
CCn1c(SCc2nc3scc(-c4ccccc4)c3c(=O)[nH]2)nnc1-c1cccs1 | > 80 µM (inactive)
COc1ccc(-n2c(=S)[nH]c3c(sc(=S)n3-c3ccccc3)c2=O)c(OC)c1 | 58 µM
COc1ccc(-n2sc3ccccc3c2=O)cc1 | 13.3 µM
COC1=CC(=O)C=C(OC)C1(O)CC(C)=O | > 80 µM (inactive)
O=[N+]([O-])c1c(NCCO)cc(Sc2nc3ccccc3s2)c2nonc12 | > 80 µM (inactive)
Cc1ccc(NNS(=O)(=O)c2ccc(C)cc2)cc1 | > 80 µM (inactive)
CCn1c2ccccc2c2nc3cc(S(=O)(=O)N4CCOCC4)ccc3nc21 | > 80 µM (inactive)
CCSc1nc2cc(S(=O)(=O)N3CCOCC3)ccc2o1 | > 80 µM (inactive)
CCN(CC)c1ccc(C(=C2C=CC(=[N+](CC)CC)C=C2)c2ccc(N(CC)CC)cc2)cc1 | 39.6 µM
Cc1cc(O)c(C(C)C)cc1N=Cc1ccc([N+](=O)[O-])cc1 | > 80 µM (inactive)
COc1ccc(C(=O)ON=C2C=C(C)C(=O)C(C)=C2)cc1 | > 80 µM (inactive)

Compound | IC50
C=CCc1c(C)[nH]c(=S)c(C#N)c1C | > 80 µM (inactive)
Cc1cccc(C(=O)Nc2nnc(S(=O)(=O)N3CCOCC3)s2)c1 | > 80 µM (inactive)
O=C(Nc1nnc(S(=O)(=O)N2CCCCC2)s1)c1cccc(Br)c1 | > 80 µM (inactive)
c1ccc(OCc2nnc3n2N=C(c2ccccc2)CS3)cc1 | > 80 µM (inactive)
O=c1c2cc([N+](=O)[O-])ccc2sn1-c1ccccc1 | 13.9 µM
CC(C)Nc1ccc(Nc2ccccc2)cc1 | > 80 µM (inactive)
Cc1cc(C)c[n+](C2=C([O-])c3ccccc3C(=O)/C2=N\S(=O)(=O)c2cccs2)c1 | > 80 µM (inactive)
COc1cc(C(=O)O/N=C2\C=CC(=O)C=C2C)cc(OC)c1OC | > 80 µM (inactive)
COc1ccc(Cl)cc1NC(=O)c1cccc([N+](=O)[O-])c1O | > 80 µM (inactive)
CC(CNc1ccccc1O)C(=O)O (configuration not stated) | > 80 µM (inactive)
CCOC(=O)c1sc(NC(=O)CSc2nnc(Cc3ccccc3)o2)c(C#N)c1C | > 80 µM (inactive)
Cc1ccc2nc(-c3ccc(NC(=S)NC4CC(C)(C)NC(C)(C)C4)cc3)sc2c1 | > 80 µM (inactive)
CCC(C)(C)c1nnc(NC(=O)C2CCN(C(=O)c3ccco3)CC2)s1 | > 80 µM (inactive)
Cc1cc(C)c2c(=O)n(CC(=O)Nc3cccc(Cl)c3C)sc2n1 | > 80 µM (inactive)
CCN(CC)CCNC(=O)CCCCn1c(=S)[nH]c2c([nH]c3ccc(OC)cc32)c1=O | > 80 µM (inactive)
O=C(O)C(Cc1ccccc1)N1C(=O)C=CC1=O (configuration not stated) | 51 µM
CC1=CC(=NOC(=O)/C=C/c2ccccc2)C=C(C)C1=O | > 80 µM (inactive)
CCN(CC)c1ccc(NC(=O)c2ccccc2Br)cc1S(=O)(=O)Nc1ccccc1OC | > 80 µM (inactive)
O=C(OCC(=O)c1ccc([N+](=O)[O-])cc1)/C(=C\c1ccc(Cl)cc1)NC(=O)c1ccccc1 | > 80 µM (inactive)
CCOC(=O)Cc1cc(=O)n2[nH]c(C(C)(C)C)cc2n1 | > 80 µM (inactive)
Cc1cc(C)nc(/N=C(\N)Nc2ccccc2-c2ccccc2)n1 | > 80 µM (inactive)
Cc1nc(COC(=O)c2cc(O)c3ccccc3c2O)cs1 | > 80 µM (inactive)
CC1(C)Cc2c(sc3nc4n(-c5ccccc5)c(=O)c(CCC(=O)O)nn4c(=O)c23)CO1 | 8.84 µM
CC1=NOC(=O)/C1=C\c1ccc(-c2ccccc2Br)o1 | > 80 µM (inactive)
